According to patent US20240116892A1, “HETEROCYCLIC AMIDE AND UREA COMPOUNDS AS JAK2 INHIBITORS” (Ajax Therapeutics, Inc., priority 2022, published 2024):

The molecules below were run against JAK2 (JH1 domain-catalytic, Y1007F, Y1008F) kinase (Homo sapiens (Human), UniProt O60674, Y1007F/Y1008F) (assay: JAK2 JH1 Domain Binding Assay). Conditions: qPCR readout.
Protocol: JAK2 (JH1 domain-catalytic, Y1007F, Y1008F) kinase was expressed as N-terminal fusion to the DNA binding domain of NFkB in transiently transfected HEK293 cells and subsequently tagged with DNA for qPCR detection. Streptavidin-coated magnetic beads were treated with biotinylated small molecule ligands for 30 minutes at room temperature to generate affinity resins for kinase assays. The liganded beads were blocked with excess biotin and washed with blocking buffer (SeaBlock (Pierce), 1% BSA, 0.05% Tween 20, 1 mmol/L DTT) to remove unbound ligand and to reduce nonspecific phage binding. Binding reactions were assembled by combining kinases, liganded affinity beads, and test compounds in 1× binding buffer (1× PBS, 0.05% Tween 20, 0.1% BSA, 1 mmol/L DTT). Test compound was prepared as 111× stocks in 100% DMSO and directly diluted into the assay wells. All reactions were performed in polypropylene 384-well plates in a final volume of 0.02 mL. The assay plates were incubated at room temperature with shaking for 1 hour and the affinity beads were washed with wash buffer (1× PBS, 0.05% Tween 20). The beads were then re-suspended in elution buffer (1× PBS, 0.05% Tween 20, 0.5 μmol/L non-biotinylated affinity ligand) and incubated at room temperature with shaking for 30 minutes. The kinase concentration in the eluate was measured by qPCR.

Sequence of JAK2 (JH1 domain-catalytic, Y1007F, Y1008F) kinase (O60674 849-1124 Y1007F/Y1008F): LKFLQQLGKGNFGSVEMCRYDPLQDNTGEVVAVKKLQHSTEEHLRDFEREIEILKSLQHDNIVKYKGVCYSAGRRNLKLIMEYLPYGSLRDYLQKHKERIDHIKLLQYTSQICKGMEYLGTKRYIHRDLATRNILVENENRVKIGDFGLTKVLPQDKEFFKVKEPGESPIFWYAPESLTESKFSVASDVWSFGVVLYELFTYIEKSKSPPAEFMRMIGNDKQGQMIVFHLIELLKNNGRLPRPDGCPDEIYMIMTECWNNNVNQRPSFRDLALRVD

**Q.** For `Cc1n[nH]c2ncc(N3CCC(N(C)C(=O)Nc4cc(C(F)(F)F)cn(C)c4=O)C(F)(F)C3)cc12` (single isomer, unassigned) [Example I-36-b, (S)- or (R)-1-(3,3-difluoro-1-(3-methyl-1H-pyrazolo[3,4-b]pyridin-5-yl)piperidin-4-yl)-1-methyl-3-(1-methyl-2-oxo-5-(trifluoromethyl)-1,2-dihydropyridin-3-yl)urea], which Kd is on record?
**A.** Its Kd is under 10 nM.

**Q.** `Cc1cc2nc(N3CCC(N(C)C(=O)Nc4cc(C(F)(F)F)cn(C)c4=O)C(F)(F)C3)cnc2[nH]1` (single isomer, unassigned) [Example I-37-a, (R)- or (S)-1-(3,3-difluoro-1-(6-methyl-5H-pyrrolo[2,3-b]pyrazin-2-yl)piperidin-4-yl)-1-methyl-3-(1-methyl-2-oxo-5-(trifluoromethyl)-1,2-dihydropyridin-3-yl)urea] was tested. Which Kd did it give?
**A.** The Kd was under 10 nM.

**Q.** With `Cc1cc2nc(N3CCC(N(C)C(=O)Nc4cc(C(F)(F)F)cn(C)c4=O)C(F)(F)C3)cnc2[nH]1` (single isomer, unassigned) [Example I-37-b, (S)- or (R)-1-(3,3-difluoro-1-(6-methyl-5H-pyrrolo[2,3-b]pyrazin-2-yl)piperidin-4-yl)-1-methyl-3-(1-methyl-2-oxo-5-(trifluoromethyl)-1,2-dihydropyridin-3-yl)urea] as the molecule, how does the Kd read?
**A.** Its Kd is under 10 nM.

**Q.** For `CN(C(=O)Nc1cc(C(F)(F)F)cn(C)c1=O)C1CCCN(c2cnc3[nH]ccc3n2)CC1` (single isomer, unassigned) [Example I-41-a, (R)- or (S)-1-(1-(5H-pyrrolo[2,3-b]pyrazin-2-yl)azepan-4-yl)-1-methyl-3-(1-methyl-2-oxo-5-(trifluoromethyl)-1,2-dihydropyridin-3-yl)urea], which Kd is on record?
**A.** Its Kd is 1000 to 5000 nM.

**Q.** How did the Kd turn out when `CN(C(=O)Nc1cc(C(F)(F)F)cn(C)c1=O)C1CCCN(c2cnc3[nH]ccc3n2)CC1` (single isomer, unassigned) [Example I-41-b, (S)- or (R)-1-(1-(5H-pyrrolo[2,3-b]pyrazin-2-yl)azepan-4-yl)-1-methyl-3-(1-methyl-2-oxo-5-(trifluoromethyl)-1,2-dihydropyridin-3-yl)urea] was run?
**A.** Its Kd is 50 to 1000 nM.

**Q.** `CN(C(=O)Nc1cc(C(F)(F)F)cn(C)c1=O)[C@@H]1C[C@@H]2C[C@H]1CN2c1cnc(NC(=O)C2CC2)cn1` (single isomer, unassigned) [Example I-44-a] was tested. Which Kd did it give?
**A.** The Kd was 10 to 50 nM.

**Q.** Which Kd does the source give for `CN(C(=O)Nc1cc(C(F)(F)F)cn(C)c1=O)[C@H]1C[C@H]2C[C@@H]1CN2c1cnc(NC(=O)C2CC2)cn1` (single isomer, unassigned) [Example I-44-b] here?
**A.** Its Kd is 10 to 50 nM.

**Q.** `CN(C(=O)Nc1cc(C(F)(F)F)cn(C)c1=O)[C@H]1CCN(c2cnc3[nH]ncc3c2)CC1(C)C` (single isomer, unassigned) [Example I-45-a] was tested. Which Kd did it give?
**A.** The Kd was under 10 nM.

**Q.** For `CN(C(=O)Nc1cc(C(F)(F)F)cn(C)c1=O)[C@@H]1CCN(c2cnc3[nH]ncc3c2)CC1(C)C` (single isomer, unassigned) [Example I-45-b], which Kd is on record?
**A.** The Kd was 10 to 50 nM.

**Q.** `CN(C(=O)Nc1cc(C(F)(F)F)cn(C)c1=O)C1CCN(c2cnc3[nH]ccc3n2)CC1(C)C` (single isomer, unassigned) [Example I-49-a, (R)- or (S)-1-(3,3-dimethyl-1-(5H-pyrrolo[2,3-b]pyrazin-2-yl)piperidin-4-yl)-1-methyl-3-(1-methyl-2-oxo-5-(trifluoromethyl)-1,2-dihydropyridin-3-yl)urea] was tested. Which Kd did it give?
**A.** The Kd was under 10 nM.

**Q.** For `CN(C(=O)Nc1cc(C(F)(F)F)cn(C)c1=O)C1CCN(c2cnc3[nH]ccc3n2)CC1(C)C` (single isomer, unassigned) [Example I-49-b, (S)- or (R)-1-(3,3-dimethyl-1-(5H-pyrrolo[2,3-b]pyrazin-2-yl)piperidin-4-yl)-1-methyl-3-(1-methyl-2-oxo-5-(trifluoromethyl)-1,2-dihydropyridin-3-yl)urea], which Kd is on record?
**A.** The Kd was under 10 nM.

**Q.** For `C[C@@H]1CN(C(=O)Nc2cc(C(F)(F)F)cn(C)c2=O)C2(CCN(c3cnc4[nH]ccc4n3)CC2)C1` (single isomer, unassigned) [Example I-53-a], which Kd is on record?
**A.** The Kd was 50 to 1000 nM.

**Q.** `C[C@H]1CN(C(=O)Nc2cc(C(F)(F)F)cn(C)c2=O)C2(CCN(c3cnc4[nH]ccc4n3)CC2)C1` (single isomer, unassigned) [Example I-53-b] was tested. Which Kd did it give?
**A.** The Kd was 50 to 1000 nM.

**Q.** Which Kd does the source give for `CC1CN(C(=O)Nc2cc(C(F)(F)F)cn(C)c2=O)C2(CCN(c3cnc4[nH]cc(F)c4n3)CC2)C1` (single isomer, unassigned) [Example I-54-a] here?
**A.** Its Kd is 50 to 1000 nM.

**Q.** How did the Kd turn out when `CC1CN(C(=O)Nc2cc(C(F)(F)F)cn(C)c2=O)C2(CCN(c3cnc4[nH]cc(F)c4n3)CC2)C1` (single isomer, unassigned) [Example I-54-b] was run?
**A.** Its Kd is 50 to 1000 nM.

**Q.** Which Kd does the source give for `C[C@@H]1CN(C(=O)Nc2cc(C(F)(F)F)cn(C)c2=O)C2(CCN(c3cnc4[nH]cc(C#N)c4n3)CC2)C1` (single isomer, unassigned) [Example I-60-a] here?
**A.** The Kd was 50 to 1000 nM.

**Q.** `C[C@H]1CN(C(=O)Nc2cc(C(F)(F)F)cn(C)c2=O)C2(CCN(c3cnc4[nH]cc(C#N)c4n3)CC2)C1` (single isomer, unassigned) [Example I-60-b] was tested. Which Kd did it give?
**A.** Its Kd is 50 to 1000 nM.

**Q.** With `CN(C(=O)Nc1cc(C(F)(F)F)cn(C)c1=O)[C@@H]1CCN(c2cnc3[nH]ccc3n2)C[C@H]1F` (single isomer, unassigned) [Example I-63-a] as the molecule, how does the Kd read?
**A.** Its Kd is under 10 nM.

**Q.** How did the Kd turn out when `CN(C(=O)Nc1cc(C(F)(F)F)cn(C)c1=O)[C@H]1CCN(c2cnc3[nH]ccc3n2)C[C@@H]1F` (single isomer, unassigned) [Example I-63-b] was run?
**A.** Its Kd is under 10 nM.

**Q.** Which Kd does the source give for `CN(C(=O)Nc1cc(C(F)(F)F)cn(C)c1=O)[C@@H]1CC=C(c2cnc3[nH]ccc3n2)CC1` (single isomer, unassigned) [Example I-82-a] here?
**A.** Its Kd is under 10 nM.

**Q.** For `CN(C(=O)Nc1cc(C(F)(F)F)cn(C)c1=O)[C@H]1CC=C(c2cnc3[nH]ccc3n2)CC1` (single isomer, unassigned) [Example I-82-b], which Kd is on record?
**A.** The Kd was under 10 nM.

**Q.** How did the Kd turn out when `CN1CCC(c2n[nH]c3ncc(N4CC[C@H](N(C)C(=O)Nc5cc(C(F)(F)F)cn(C)c5=O)C(F)(F)C4)cc23)CC1` (single isomer, unassigned) [Example I-122-a] was run?
**A.** The Kd was under 10 nM.

**Q.** Which Kd does the source give for `CN1CCC(c2n[nH]c3ncc(N4CC[C@@H](N(C)C(=O)Nc5cc(C(F)(F)F)cn(C)c5=O)C(F)(F)C4)cc23)CC1` (single isomer, unassigned) [Example I-122-b] here?
**A.** The Kd was under 10 nM.

**Q.** For `CC(=O)N1CCC(c2n[nH]c3ncc(N4CC[C@@H](N(C)C(=O)Nc5cc(C(F)(F)F)cn(C)c5=O)C(F)(F)C4)cc23)CC1` (single isomer, unassigned) [Example I-123-a], which Kd is on record?
**A.** The Kd was under 10 nM.

**Q.** How did the Kd turn out when `CC(=O)N1CCC(c2n[nH]c3ncc(N4CC[C@H](N(C)C(=O)Nc5cc(C(F)(F)F)cn(C)c5=O)C(F)(F)C4)cc23)CC1` (single isomer, unassigned) [Example I-123-b] was run?
**A.** Its Kd is under 10 nM.

**Q.** For `CN1CCN(c2n[nH]c3ncc(N4CC[C@@H](N(C)C(=O)Nc5cc(C(F)(F)F)cn(C)c5=O)C(F)(F)C4)cc23)CC1` (single isomer, unassigned) [Example I-154-a, (R)- or (S)-1-(3,3-difluoro-1-(3-(4-methylpiperazin-1-yl)-1H-pyrazolo[3,4-b]pyridin-5-yl)piperidin-4-yl)-1-methyl-3-(1-methyl-2-oxo-5-(trifluoromethyl)-1,2-dihydropyridin-3-yl)urea], which Kd is on record?
**A.** The Kd was under 10 nM.

**Q.** `CN1CCN(c2n[nH]c3ncc(N4CC[C@H](N(C)C(=O)Nc5cc(C(F)(F)F)cn(C)c5=O)C(F)(F)C4)cc23)CC1` (single isomer, unassigned) [Example I-154-b, (R)- or (S)-1-(3,3-difluoro-1-(3-(4-methylpiperazin-1-yl)-1H-pyrazolo[3,4-b]pyridin-5-yl)piperidin-4-yl)-1-methyl-3-(1-methyl-2-oxo-5-(trifluoromethyl)-1,2-dihydropyridin-3-yl)urea] was tested. Which Kd did it give?
**A.** The Kd was under 10 nM.

**Q.** `CN(C(=O)Nc1cc(C(F)(F)F)cn(C)c1=O)[C@@H]1CCN(c2cnc3[nH]cc(N4CCOCC4)c3n2)CC1(F)F` (single isomer, unassigned) [Example I-155-a] was tested. Which Kd did it give?
**A.** Its Kd is 10 to 50 nM.

**Q.** For `CN(C(=O)Nc1cc(C(F)(F)F)cn(C)c1=O)[C@H]1CCN(c2cnc3[nH]cc(N4CCOCC4)c3n2)CC1(F)F` (single isomer, unassigned) [Example I-155-b], which Kd is on record?
**A.** Its Kd is 10 to 50 nM.

**Q.** For `CN(C(=O)Nc1cc(C(F)(F)F)cn(C)c1=O)[C@@H]1CC=C(c2cnc3[nH]ncc3n2)CC1` (single isomer, unassigned) [Example I-160-a, (S)- or (R)-1-(4-(1H-pyrazolo[3,4-b]pyrain-5-yl)cyclohex-3-en-1-yl)-1-methyl-3-(2-methyl-2-oxo-5-(trifluoromethyl)-1,2-dihydropyridin-3-yl)urea], which Kd is on record?
**A.** Its Kd is under 10 nM.

**Q.** Which Kd does the source give for `CN(C(=O)Nc1cc(C(F)(F)F)cn(C)c1=O)[C@H]1CC=C(c2cnc3[nH]ncc3n2)CC1` (single isomer, unassigned) [Example I-160-b, (S)- or (R)-1-(4-(1H-pyrazolo[3,4-b]pyrain-5-yl)cyclohex-3-en-1-yl)-1-methyl-3-(2-methyl-2-oxo-5-(trifluoromethyl)-1,2-dihydropyridin-3-yl)urea] here?
**A.** Its Kd is under 10 nM.

**Q.** How did the Kd turn out when `COc1n[nH]c2ncc(N3CC[C@H]4[C@H](C3)OCCN4C(=O)Nc3cc(C(F)(F)F)cn(C)c3=O)cc12` (single isomer, unassigned) [Example I-169-a] was run?
**A.** Its Kd is 10 to 50 nM.

**Q.** Which Kd does the source give for `COc1n[nH]c2ncc(N3CC[C@H]4[C@H](C3)OCCN4C(=O)Nc3cc(C(F)(F)F)cn(C)c3=O)cc12` (single isomer, unassigned) [Example I-169-b] here?
**A.** Its Kd is under 10 nM.
